In patent US6265537A, “Thiodepsipeptides for combating endoparasites and a method for producing the same” (Bayer Aktiengesellschaft, priority 1997, dated 2001):

Key:
Haemonchus contortus = experiment: In vivo nematode test Haemonchus contortus/sheep; details: sheep infected with Haemonchus contortus; applied orally and/or intravenously as pure active compound; complete cessation of worm egg excretion with the faeces after treatment
Procedure: Haemonchus contortus/Sheep Sheep which had been experimentally infected with Haemonchus contortus were treated after the prepotency time of the parasite had elapsed. The active compounds were applied orally and/or intravenously as pure active compound. The degree of effectiveness is determined by quantitatively counting the worm eggs which have been excreted with the faeces before and after the treatment. A complete cessation of egg excretion after the treatment means that the worms have been aborted or damaged to such an extent that they no longer produce eggs (dosis […]). Active compounds tested and effective dosage rates can be seen from the table which follows

Heterakis spumosa = experiment: In vivo nematode test Heterakis spumosa/mouse; details: mice infected with Heterakis spumosa; dosage rate 50 mg/kg, applied orally and/or intraperitoneally on day 46 after infection; adult parasites in colon and caecum counted on day 54, compared with untreated control
Description: Mice are experimentally infected with nematodes of the variety Heterakis spumosa. In order to infect the mice, 90 embryonate Heterakis spumosa eggs are applied orally.
After the prepotency time had elapsed, the suspended active compounds are applied orally and/or intraperitoneally on the 46th day after the infection.
The mice are selected on the 54th day after the infection. The adult parasites in the colon and caecum are counted with the aid of a microscope. The treatment results in the doses group are compared with the untreated control group.
Active compounds tested and effective dosage rates (dosis effectiva) can be seen from the table which follows.

Compound | Effective dosage rates in [mg/kg] (dosis effectiva) (Haemonchus contortus) | Reduction rate in [%] (Heterakis spumosa)
CC(C)CC1C(=O)OC(Cc2ccc(N3CCOCC3)cc2)C(=O)N(C)C(CC(C)C)C(=O)OC(C)C(=O)N(C)C(CC(C)C)C(=O)OC(Cc2ccc(N3CCOCC3)cc2)C(=O)N(C)C(CC(C)C)C(=O)OC(C)C(=O)N1C [Cyclo(-MeLeu-D-Lac-MeLeu-D-4-MorPhLac-)2, cyclo(-N-methyl-L-leucyl-D-lactyl-N-methyl-L-leucyl-D-4-N-morpholino-phenyllactyl-N-methyl-L-leucyl-D-lactyl-N-methyl-L-leucyl-D-4-N-morpholinophenyllactyl-), reference compound] | 0.05 | –
CC(C)C[C@H]1C(=O)O[C@H](Cc2ccccc2)C(=O)N(C)[C@@H](CC(C)C)C(=O)O[C@H](C)C(=O)N(C)[C@@H](CC(C)C)C(=O)O[C@H](Cc2ccccc2)C(=O)N(C)[C@@H](CC(C)C)C(=O)O[C@H](C)C(=O)N1C [PF 1022A, cyclo(-N-methyl-L-leucyl-D-lactyl-N-methyl-L-leucyl-D-phenyllactyl-N-methyl-L-leucyl-D-lactyl-N-methyl-L-leucyl-D-phenyllactyl-), reference compound] | 0.25 | 0
Cyclo(-N-methyl-L-leucyl-D-thiolactyl-N-melhyl-L-leucyl-D-4-N-morpholinophenylthiiolactyl-N-methyl-L-leucyl-D-thiolactyl-N-methyl-L-leucyl-D-4-N-morpholinophenylthiolactyl-) [Example 3] | 0.025 | –
Cyclo(-N-methyl-L-leucyl-D-thiolactyl-N-methyl-L-leucy-D-4-(pyrid-2-yl-methoxy)-phenylthiolactyl-N-methyl-L-leucy-D-thiolactyl-N-methyl-L-leucyl-D-4-(pyrid-2-yl-methoxy)-phenylthiolactyl-) [Example 6] | 0.01 | –
Cyclo(-N-methyl-L-leucyl-D-thiolactyl-N-methyl-L-leucyl-D-4-(pyrid-2-yl-methoxy)-phenyllactyl-N-methyl-L-keucyl-D-lactyl-N-methyl-L-leucyl-D-4-(pyrid- 2-yl-methoxy)-phenyllactyl-) [Example 10] | 0.01 | –
Cyclo(-N-methyl-L-leucyl-D-thiolactyl-N-methyl-L-leucyl-D-phenylthiolactyl- N-methyl-L-leucyl-D-thiolactyl-N-methyl-L-leucyl-D-phenylthiolactyl-) [Example 1] | 0.10 | 100
Cyclo(N-methyl-L-leucyl-D-thiolactyl-N-methyl-L-leucyl-D4-fur-2-yl-methoxy)-phenyllactyl-N-methyl-L-leucyl-D-lactyl-N-methyl-L-leucyl-D-phenyllactyl-) [Example 12] | 0.01 | –
Cyclo(N-methyl-L-leucyl-D-thiolactyl-N-methyl-L-leucyl-D-4-N-morpholinophenyllactyl-N-methyl-L-leucyl-D-lactyl-N-methyl-L-leucyl-D-4-N-morpholinophenyllactyl-) [Example 8] | 0.01 | –
Cyclo(N-methyl-L-leucyl-D-thiolactyl-N-methyl-L-leucyl-D-phenyllactyl-N-methyl-L-leucyl-D-lactyl-N-methyl-L-leucyl-D-phenyllactyl-) [Example 7] | 0.01 | –
